Results on 10 compounds are retold here after ChEMBL document CHEMBL1158188, “Natural polyphenols (vegetable tannins) as drugs: possible modes of action” (J Nat Prod, 1996).

The nature of data set [1]: Octanol-water partition coefficient of the compound. To be noted: read-out: log KOW. The format is physicochemical.
Data set [2] in a line: Binding affinity to bradykinin.
A short description of data set [3]: Antioxidant activity assessed by superoxide anion scavenging assay. The format is functional.
Data set [4] in a line: Antioxidant activity assessed by hydroxyl radical scavenging assay. Type of data set: functional.
A short description of data set [5]: Antioxidant activity assessed by singlet oxygen scavenging assay. Type of data set: functional.
Data set [6] can be described thus: Binding affinity to bradykinin peptide Arg-Pro-Pro-Gly-Phe.
Data set [7] can be described thus: Binding affinity to desarginyl(1)bradykinin.
The nature of data set [8]: Binding affinity to desarginyl(9)bradykinin.

On to `O=C1OC[C@H]2OC(=O)c3cc(O)c(O)c(O)c3-c3c(O)c(O)c(O)c4c3C(=O)O[C@H]([C@H]3OC(=O)c5c-4c(O)c(O)c(O)c5[C@H]3O)[C@@H]2OC(=O)c2cc(O)c(O)c(O)c2-c2c1cc(O)c(O)c2O` [CASTALAGIN], for which, in data set [1], the logP was found to be 0.1.
As for `O=C(OC[C@H]1O[C@@H](OC(=O)c2cc(O)c(O)c(O)c2)[C@H](OC(=O)c2cc(O)c(O)c(O)c2)[C@@H](O)[C@@H]1OC(=O)c1cc(O)c(O)c(O)c1)c1cc(O)c(O)c(O)c1`, the Ka in data set [2] was determined as 20.5 M⁻¹.
Broadly, the IC50 is the midpoint of a concentration-inhibition curve. High values mean weaker potency, low ones greater potency. As for `O=C1O[C@H]([C@@H](O)CO)C(O)=C1O` [ASCORBIC ACID], the IC50 in data set [3] was determined as 23300 nM; in data set [4] it was 18.8 µM; in data set [5], 120 µM.
For `O=C(OC[C@H]1O[C@@H](OC(=O)c2cc(O)c(O)c(O)c2)[C@H](O)[C@@H](OC(=O)c2cc(O)c(O)c(O)c2)[C@@H]1O)c1cc(O)c(O)c(O)c1`, the Ka in data set [2] was found to be 4.4 M⁻¹.
For the compound `O=C1OCC2OC(=O)c3cc(O)c(O)c(O)c3-c3c(O)c(O)c(O)c4c3C(=O)OC(C2OC(=O)c2cc(O)c(O)c(O)c2-c2c1cc(O)c(O)c2O)C1OC(=O)c2c-4c(O)c(O)c(O)c2C1O` (stereo unspecified) [VESCALAGIN], the logP in data set [1] worked out at 0.1.
For `CCCOC(=O)c1cc(O)c(O)c(O)c1` [PROPYL GALLATE], the values for the IC50 in data set [3], in data set [4] and in data set [5] were 1410 nM, 86.5 µM and 66.7 µM, respectively.
As for `O=C(OC[C@H]1O[C@@H](OC(=O)c2cc(O)c(O)c(O)c2)[C@H](OC(=O)c2cc(O)c(O)c(O)c2)[C@@H](OC(=O)c2cc(O)c(O)c(O)c2)[C@@H]1OC(=O)c1cc(O)c(O)c(O)c1)c1cc(O)c(O)c(O)c1`, the Ka in data set [6] came out at 13 M⁻¹; in data set [2], 33.7 M⁻¹; in data set [7], 20 M⁻¹; in data set [8], 20.4 M⁻¹.
Consider `O=C(OC[C@@H]1OC(O)[C@](O)(COC(=O)c2cc(O)c(O)c(O)c2)[C@H]1O)c1cc(O)c(O)c(O)c1` (stereo partly specified) [HAMAMELITANIN], for which the values for the IC50 in data set [3], in data set [4] and in data set [5] were 1310 nM, 5.46 µM and 45.5 µM, respectively.
With `Oc1cc(O)c2c(c1)O[C@H](c1ccc(O)c(O)c1)[C@H](O)[C@H]2c1c(O)cc(O)c2c1O[C@H](c1ccc(O)c(O)c1)[C@H](O)C2`, in data set [2], the Ka worked out at 8.2 M⁻¹.
In the case of `O=C(O)c1cc(O)c(O)c(O)c1` [GALLIC ACID], the figures for the half-inhibitory concentration (IC50) in data set [3], in data set [4] and in data set [5] were 1010 nM, 78 µM and 69.8 µM, respectively.
